Laboratory results: patent EP4810052A2, “HCRHR2 SELECTIVE POLYPEPTIDES” (Gubra A/S, priority 2023, dated 2026)
Starred links: 1 amine or outer side, 2 acyl side, 3 side chain; linkers in the order of their positions; H or OH if unused. Non-standard residues stand in square brackets, D forms with d. Residues, ends and D or L forms follow the SMILES beside them. Groups on a side chain read outwards from the residue. *: point of attachment. C20 diacid = O=C(O)CCCCCCCCCCCCCCCCCCC(=O)*; γGlu = O=C(O)[C@H](CCC(=O)[*:2])N[*:1]; Nle = CCCC[C@H](N)C(=O)O; AEEA = NCCOCCOCC(=O)O; Aib = CC(C)(N)C(=O)O

Key:
rCRHR1 = target: T1, rCRHR1 (Rattus norvegicus, UniProt P35353); assay: cAMP potency, transiently transfected CHO-K1 cells, rCRHR1; assay type: cell-based; conditions: transiently transfected CHO-K1, average n=3; read-out: Transient cell system EC50 (nM) rCRH R1
T1 construct: DYK (FLAG); host or cells: CHO-K1, transiently transfected
T1 sequence (P35353 24-415): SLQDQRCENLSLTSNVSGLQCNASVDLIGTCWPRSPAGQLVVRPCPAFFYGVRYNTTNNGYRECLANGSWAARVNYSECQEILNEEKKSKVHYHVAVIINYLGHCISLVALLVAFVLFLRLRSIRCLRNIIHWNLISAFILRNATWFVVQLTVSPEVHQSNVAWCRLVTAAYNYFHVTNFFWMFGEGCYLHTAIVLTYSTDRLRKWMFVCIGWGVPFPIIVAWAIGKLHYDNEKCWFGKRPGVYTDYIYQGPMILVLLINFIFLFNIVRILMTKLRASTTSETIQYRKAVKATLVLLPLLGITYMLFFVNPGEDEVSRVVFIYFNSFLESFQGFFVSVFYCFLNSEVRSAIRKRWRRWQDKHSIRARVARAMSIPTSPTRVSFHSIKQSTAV
Description: Selected peptides were tested for potency on different species (mouse, rat, porcine) using transiently transfected CHO-K1 cells using the general procedure.

[1] = Subchronic unilateral ischemia-reperfusion injury (uIRI) in mice; assay type: in vivo; conditions: for BW at termination / Kidney weight at termination: ± SEM
From the text: Male C57BL/6jRj mice were obtained from JanVier (JanVier Labs, France) at 10 weeks of age. The animals were single-housed in Individually Ventilated Cages (IVC from Tecniplast, Typ I SL cage) with free access to water, food and encrichments. Animals were allowed to acclimatize for 7 days prior to study start. After acclimatization, animals were randomized into groups based on body weight; 1) Sham, 2) uIRI - Vehicle, 3) uIRI -SEQ ID NO: 3, 30 nmol/kg and 4) uIRI -SEQ ID NO: 3, 100 nmol/kg.
On study day 0, unilateral ischemia-reperfusion injury (uIRI, 25 min of occlusion followed by reperfusion) was performed on study group 2 - 4 (followed by uninephrectomy (UNx) on study day 6. Animals were subcutaneously dosed once daily starting prior to IRI surgery and until study day 7, where animals were terminated. Here plasma was collected, and the remaining kidney weighed and sampled for histological analysis. Kidneys were stained, analyzed and quantified using the following markers: collagen type-1 (col1a1), F4/80 and KIM-1.

[2] = Telemetry in conscious healthy pigs; assay type: in vivo; conditions: study A
Description: PK/PD/safety properties of SEQ ID NO: 3 were evaluated in freely moving conscious healthy pigs by […].
In study part A, the effects of an ascending dose regime of SEQ ID NO: 3, (0.03, 0.1, 0.3 and 1.0 mg/kg) was compared to placebo. Primary endpoints were blood pressure, heart rate and ECG measurements.
In study part B, the effect of repeated dosing (once weekly, for 4 weeks) with a single dose of SEQ ID NO: 3 (0.3 mg/kg) was compared to placebo. Primary endpoints were blood pressure, heart rate and ECG measurements.

[3] = Telemetry in Spontaneously Hypertensive Rats; assay type: in vivo; conditions: for Heart rate / Mean arterial pressure: rats
From the text: Blood pressure and heart rate were monitored in freely moving conscious animals by […] (DSI Data Science International, MN, USA). Female adult hypertensive rats (SHR) were implanted with transmitters. After shaving the abdominal wall, a midline abdominal incision was made, and the fluid-filled sensor catheter was inserted upstream into the exposed descending aorta between the iliac bifurcation and the renal arteries. According to the DSI guidelines the tip of the telemetric catheter was located just caudal to the renal arteries and secured by tissue adhesive. The transmitter body was affixed to the inner peritoneal - 3 - wall before closure of abdomen. A two-layer closure of the abdominal incision was used, with individual suturing of the peritoneum and the muscle wall followed by closure of the outer skin. Surgery was performed under aseptic conditions. For postsurgical protection against infections and pain a single dosage of an antibiotic (Ursocyclin 10% pro inj., Serumwerk, s.c.) and analgesic were injected (Rimadyl®, 4 mg/kg s.c., Pfizer, Germany). All animals were single-housed at 22-24°C ambient temperature and maintained on a 12/12 h dark-light cycle with free access to standard laboratory rat chow and water ad libitum.
All animals were treated with daily s.c. doses of vehicle or SEQ ID NO: 3, (10 or 30 nmol/kg) for 7 days (1 ml/kg). Drug administration took place at 9.00 a.m. (= 0 hours). For analysis, data were grouped to provide half-hourly averages.
For statistical analysis, 24 hours means were calculated starting from time of dosing. All data were evaluated using a 2-way ANOVA with Dunnett's test.

[4] = 100 nmol/kg, compared to uIRI vehicle
[5] = SHR rats, daily s.c. 10 or 30 nmol/kg for 7 days

CCCC[C@H](NC(=O)[C@@H](NC(=O)[C@H](CCC(=O)O)NC(=O)[C@H](C)NC(=O)[C@H](CC(N)=O)NC(=O)C(C)(C)NC(=O)[C@H](CCCCNC(=O)COCCOCCNC(=O)COCCOCCNC(=O)CC[C@H](NC(=O)CC[C@H](NC(=O)CCCCCCCCCCCCCCCCCCC(=O)O)C(=O)O)C(=O)O)NC(=O)[C@H](C)NC(=O)[C@H](CCC(N)=O)NC(=O)[C@H](CCC(=O)O)NC(=O)[C@H](CCCNC(=N)N)NC(=O)[C@H](C)NC(=O)[C@H](C)NC(=O)[C@H](CCCNC(=N)N)NC(=O)[C@H](C)NC(=O)[C@H](CCCNC(=N)N)NC(=O)[C@H](C)NC(=O)[C@H](CCC(N)=O)NC(=O)[C@H](CO)NC(=O)[C@H](CC(C)C)NC(=O)[C@H](CC(C)C)NC(=O)[C@@H](NC(=O)[C@H](CCC(N)=O)NC(=O)[C@H](CC(C)C)NC(=O)[C@H](CC(C)C)NC(=O)CNC(=O)[C@@H](NC(=O)[C@@H]1CCCN1C(=O)[C@@H](NC(=O)[C@H](CC(=O)O)NC(=O)[C@H](CC(C)C)NC(=O)[C@H](CO)NC(=O)[C@H](CC(C)C)NC(=O)[C@@H](NC(=O)[C@@H]1CCCN1)C(C)C)C(C)C)[C@@H](C)CC)[C@@H](C)CC)[C@@H](C)CC)C(=O)N[C@@H](C)C(=O)N[C@@H](CCC(=O)O)C(=O)N[C@H](C(N)=O)C(C)C [SEQ ID NO: 238] (H-PVLSLDVPIGLLQILLSQARARAAREQAK([AEEA-AEEA-γGlu-γGlu-C20 diacid])[Aib]NAEI[Nle]AEV-NH2)
EC50 (rCRHR1): > 1000 nM

CC[C@H](C)[C@H](N)C(=O)N[C@H](C(=O)N[C@@H](CC(C)C)C(=O)N[C@@H](CO)C(=O)N[C@@H](CC(C)C)C(=O)N[C@@H](CC(=O)O)C(=O)N[C@H](C(=O)N1CCC[C@H]1C(=O)N[C@H](C(=O)NCC(=O)N[C@@H](CC(C)C)C(=O)N[C@@H](CC(C)C)C(=O)N[C@@H](CCC(N)=O)C(=O)N[C@H](C(=O)N[C@@H](CC(C)C)C(=O)N[C@@H](CC(C)C)C(=O)N[C@@H](CCC(=O)O)C(=O)N[C@@H](CCC(N)=O)C(=O)N[C@@H](C)C(=O)N[C@@H](CCCNC(=N)N)C(=O)N[C@@H](C)C(=O)N[C@@H](CCCNC(=N)N)C(=O)N[C@@H](C)C(=O)N[C@@H](C)C(=O)N[C@@H](CCCNC(=N)N)C(=O)N[C@@H](CCC(=O)O)C(=O)N[C@@H](CCC(N)=O)C(=O)N[C@@H](C)C(=O)N[C@@H](CCCCNC(=O)COCCOCCNC(=O)COCCOCCNC(=O)CC[C@H](NC(=O)CC[C@H](NC(=O)CCCCCCCCCCCCCCCCCCC(=O)O)C(=O)O)C(=O)O)C(=O)N[C@H](C(=O)N[C@@H](CC(N)=O)C(=O)N[C@@H](C)C(=O)N[C@@H](CCC(=O)O)C(=O)N[C@H](C(=O)N[C@@H](CC(C)C)C(=O)N[C@@H](C)C(=O)N[C@@H](CCC(=O)O)C(=O)N[C@H](C(N)=O)C(C)C)[C@@H](C)CC)[C@@H](C)O)[C@@H](C)CC)[C@@H](C)CC)C(C)C)C(C)C [SEQ ID NO: 3] (H-IVLSLDVPIGLLQILLEQARARAAREQAK([AEEA-AEEA-γGlu-γGlu-C20 diacid])TNAEILAEV-NH2)
Renal fibrosis, Col1a1 ([1]; 30 nmol/kg): 34.3 ± 2.3 fractional area %
Renal inflammation, F4/80 ([1]; 30 nmol/kg): 7.3 ± 0.6 fractional area %
Renal injury, KIM-1 ([1]; 30 nmol/kg): 7.48 ± 0.49 fractional area %
Serum creatinine ([1]; 30 nmol/kg): 1.83 ± 0.004 mg/dL
Serum urea ([1]; 30 nmol/kg): 463.0 ± 10.5 mg/dL
BW at termination ([1]; 30 nmol/kg): 24.4 ± 0.5 g
Kidney weight at termination ([1]; 30 nmol/kg): 0.16 ± 0.005 g
Renal fibrosis, Col1a1 ([1]; 100 nmol/kg): 26.4 ± 1.4 fractional area %
Renal inflammation, F4/80 ([1]; 100 nmol/kg): 2.5 ± 0.6 fractional area %
Renal injury, KIM-1 ([1]; 100 nmol/kg): 6.00 ± 0.50 fractional area %
Serum creatinine ([1]; 100 nmol/kg): 1.17 ± 0.13 mg/dL
Serum urea ([1]; 100 nmol/kg): 433 ± 22.5 mg/dL
kidney fibrosis [1, 4]: reduced
kidney inflammation [1, 4]: reduced
serum levels of creatinine [1, 4]: reduced
BW at termination ([1]; 100 nmol/kg): 21.8 ± 0.4 g
Kidney weight at termination ([1]; 100 nmol/kg): 0.16 ± 0.006 g
Heart rate [2]: remained unaffected
mean arterial blood pressure [2]: remained unaffected
relaxation of the left ventricle [2]: not affected
systemic or cardiac hemodynamics (LV end diastolic pressure, time constant of relaxation, baroreceptor sensitivity, heart rate variability) [2]: No relevant findings
PR-Interval ([2]; ECG): slight decrease
QT-Interval ([2]; ECG): unaffected
inotropic effects (contractility) ([2]; ascending s.c. doses 0.03-1.0 mg/kg): long-lasting positive ionotropic effects
HR [3, 5]: transient and dose-dependent increase
blood pressure [3, 5]: transient and dose-dependent decrease
Heart rate ([3]; 10 nmol/kg, Day 0): 345.67 ± 5.3 BPM
Mean arterial pressure ([3]; 10 nmol/kg, Day 0): 130.83 ± 2.1 mmHg
Heart rate ([3]; 10 nmol/kg, Day 1): 330.67 ± 6.2 BPM
Mean arterial pressure ([3]; 10 nmol/kg, Day 1): 130.33 ± 1.8 mmHg
Heart rate ([3]; 10 nmol/kg, Day 2): 324.00 ± 5.2 BPM
Mean arterial pressure ([3]; 10 nmol/kg, Day 2): 136.17 ± 2.0 mmHg
Heart rate ([3]; 10 nmol/kg, Day 3): 324.00 ± 5.2 BPM
Mean arterial pressure ([3]; 10 nmol/kg, Day 3): 139.17 ± 2.3 mmHg
Heart rate ([3]; 10 nmol/kg, Day 4): 323.33 ± 7.4 BPM
Mean arterial pressure ([3]; 10 nmol/kg, Day 4): 137.67 ± 2.4 mmHg
Heart rate ([3]; 10 nmol/kg, Day 5): 320.50 ± 7.0 BPM
Mean arterial pressure ([3]; 10 nmol/kg, Day 5): 139.00 ± 2.9 mmHg
Heart rate ([3]; 10 nmol/kg, Day 6): 315.67 ± 7.2 BPM
Mean arterial pressure ([3]; 10 nmol/kg, Day 6): 138.50 ± 2.4 mmHg
Heart rate ([3]; 10 nmol/kg, Day -1): 314.50 ± 4.8 BPM
Mean arterial pressure ([3]; 10 nmol/kg, Day -1): 145.33 ± 3.1 mmHg
Heart rate ([3]; 30 nmol/kg, Day 0): 364.50 ± 5.4 BPM
Mean arterial pressure ([3]; 30 nmol/kg, Day 0): 126.25 ± 2.5 mmHg
Heart rate ([3]; 30 nmol/kg, Day 1): 334.00 ± 4.8 BPM
Mean arterial pressure ([3]; 30 nmol/kg, Day 1): 130.00 ± 2.4 mmHg
Heart rate ([3]; 30 nmol/kg, Day 2): 327.50 ± 2.7 BPM
Mean arterial pressure ([3]; 30 nmol/kg, Day 2): 141.00 ± 3.1 mmHg
Heart rate ([3]; 30 nmol/kg, Day 3): 325.88 ± 4.2 BPM
Mean arterial pressure ([3]; 30 nmol/kg, Day 3): 142.50 ± 2.7 mmHg
Heart rate ([3]; 30 nmol/kg, Day 4): 325.38 ± 6.4 BPM
Mean arterial pressure ([3]; 30 nmol/kg, Day 4): 141.00 ± 3.1 mmHg
Heart rate ([3]; 30 nmol/kg, Day 5): 323.50 ± 5.5 BPM
Mean arterial pressure ([3]; 30 nmol/kg, Day 5): 141.75 ± 2.6 mmHg
Heart rate ([3]; 30 nmol/kg, Day 6): 328.88 ± 5.8 BPM
Mean arterial pressure ([3]; 30 nmol/kg, Day 6): 141.75 ± 2.7 mmHg
Heart rate ([3]; 30 nmol/kg, Day -1): 322.38 ± 5.9 BPM
Mean arterial pressure ([3]; 30 nmol/kg, Day -1): 148.88 ± 3.1 mmHg
